Laboratory results published in publication PMC6954720, “Discovery of retinoic acid receptor agonists as proliferators of cardiac progenitor cells through a phenotypic screening approach” (Stem Cells Translational Medicine, 2019).
“Also recorded” adds a separate entry of the source. Read-outs that look alike come from different tables or passages of the source.

Experiments:
[1] = tested on: human iPS-derived cardiac progenitor cells (CPCs); assay: CPC proliferation assay (nuclear count); type: cell-based; settings: primary screen, relative to basic FGF 100 ng/mL
Experimental: The CPC proliferation assay including image and data analysis was performed as previously described.14 Cardiac progenitor marker antibodies are listed in Table S3.
A library of 10 000 compounds was screened in singlicate at three concentrations (0.1, 1.0, and 10 μM) in the CPC proliferation assay. Each plate contained neutral controls, 0.1% DMSO and maximum controls, 100 ng/mL human basic fibroblast growth factor (FGF; Invitrogen, ThermoFisher Scientific, Waltham, Massachusetts). The data were analyzed using the Genedata Screener software (Genedata, Inc, Basel, Switzerland). […] Results were calculated using the following calculation method: compound % effect = 100 × [(X − min)/(max − min)], where X represents a normalized value for the compound based on the neutral and maximum controls.
The library was screened in three‐point concentration response (CR) at 0.1, 1.0, and 10 μM measuring proliferation of human induced pluripotent stem (iPS)‐derived CPCs with nuclear count, as measured by Hoechst staining, as the primary endpoint.

[2] = molecular target: T1, RARA (alpha) ligand binding domain (Homo sapiens, UniProt P10276); assay: RAR LBD-SRC1-2 coactivator peptide recruitment assay, agonist format, RARA; type: biochemical
T1 sequence (P10276 183-417 limits assumed): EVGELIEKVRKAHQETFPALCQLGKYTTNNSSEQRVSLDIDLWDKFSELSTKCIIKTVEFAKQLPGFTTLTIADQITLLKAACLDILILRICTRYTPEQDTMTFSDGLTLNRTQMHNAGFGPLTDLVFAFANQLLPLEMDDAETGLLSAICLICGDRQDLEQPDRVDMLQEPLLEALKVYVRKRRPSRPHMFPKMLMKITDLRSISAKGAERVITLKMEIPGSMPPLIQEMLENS
Experimental: RAR ligand binding domain (LBD)‐SRC1‐2 coactivator peptide (NCOA1_677‐700 biotinylated) recruitment assays were established for the three RAR isotypes RARA (alpha), RARB (beta), and RARG (gamma) to determine relative potencies. […] A total of 0.4 μL of a fixed concentration range of test ligands dissolved in dimethyl sulphoxide (DMSO) was added to assay plates using an acoustic liquid dispenser. […] The raw data were transformed to % effect using the equation: compound % effect = 100 × [(X − min)/(max − min)], where X represents the effect in the presence of test compound and max and min are the effects in presence of the maximum and minimum controls, respectively.
The data were plotted to generate concentration‐response profiles and the concentration‐response curves were fit to the data using the four‐parameter logistic smart fit method in the Genedata Screener software (Genedata, Inc).

[3] = tested on: HuES6 hPSC-derived cardiac progenitors; assay: HuES6-derived cardiac progenitors replated on day 5: cell number, RT-qPCR, immunocytochemistry; type: cell-based, human; settings: for effect on cell proliferation / cell numbers, in words: 1.0 μM, day-5 replated progenitors, 4 days of exposure
Experimental: Insulin and signaling agonists were omitted after 1 day. On days 2‐3, the nascent mesodermal cells were specified to the cardiac lineage using 0.2 μM C‐59 (R&D Tocris) supplementation. Culture medium was replaced daily.
Basal cardiac progenitor medium was composed of DMEM/F12 (ThermoFisher Scientific), insulin/transferrin/selenium supplement, 0.1% human serum albumin (Biological Industries Inc, Cromwell, Connecticut), 1× chemically defined lipids (ThermoFisher Scientific), and antibiotics. RAR agonists (1 μM) were added from the day of passaging the cells. Samples were harvested and monitored after 4 days of treatment.
Cell numbers per well were quantified following single‐cell dissociation with Accutase and using standard Neubauer counting chambers. RT‐qPCR and immunocytochemistry were performed according to standard procedures. RPL37A served as housekeeping gene for normalization.

[4] = tested on: human iPS-derived cardiac progenitor cells (CPCs); assay: CPC proliferation assay (nuclear count); type: cell-based
[5] = tested on: human aortic SMCs; design: method as in PMID 24424466; settings: cited from earlier work
[6] = tested on: murine CFs; design: method as in PMID 24424466; settings: cited from earlier work
[7] = tested on: human umbilical vein endothelial cells (HUVECs); design: method as in PMID 24424466; settings: cited from earlier work
[8] = tested on: human cardiac fibroblasts (CFs); assay: CF proliferation assay (nuclear count)
Experimental: To ensure that these molecules were not general proliferators of all cardiac cells, they were also tested in a human CF proliferation assay31 using nuclear count as the endpoint.

SMILES: CC1=C(/C=C/C(C)=C/C=C/C(C)=C/C(=O)O)C(C)(C)CCC1 [ATRA, all‐trans retinoic acid]
- % Effect-normalised cell count ([1]; Log Concentration M -5 (10 μM)): 59%
- % Effect-normalised cell count ([1]; Log Concentration M -6 (1.0 μM)): 14%
- % Effect-normalised cell count ([1]; Log Concentration M -7 (0.1 μM)): 14%
- top effect (% of maximum control) [2]: 103%
- terminal cardiac differentiation, in words ([3]; 1 μM, day-5 replated cells, 4 days): did not acquire a beating phenotype; also recorded: pronounced inhibition of terminal cardiac differentiation
- expression of cardiac progenitor markers vs untreated ([3]; 1 μM, day-5 replated cells, 4 days, with the exception of ISL1): enhanced the expression of cardiac progenitor markers
- effect on cell proliferation / cell numbers, in words [3]: strong positive effects on cell proliferation
- effect on cell proliferation / cell numbers, in words ([3]; listed as RA): increase in cell numbers
- EC50 ([4]; 10-point CR, variable between occasions, read-out: EC50 variation between occasions, lower end): 50 nM
- EC50 ([4]; 10-point CR, variable between occasions, read-out: EC50 variation between occasions, upper end): > 10000 nM
- EC50 ([4]; 10-point concentration response, read-out: EC50, CPC proliferation): 56 nM
- EC50 ([4]; iPSC-derived CPC proliferation, 10-point concentration response, read-out: CPC pEC50 (converted)): 50.1 nM
- proliferation of human aortic SMCs [5]: inhibited the proliferation
- proliferation of murine CFs [6]: inhibited the proliferation
- proliferation of HUVECs [7]: promoted the proliferation
- CF proliferation, result in words [8]: inactive
